In brackets after ≈: the same amount, converted by molar mass. Entries after “also recorded” stand apart in the source; their conditions may differ. Bounds are passed on as bounds.

As a reminder, the IC50 is the concentration at which inhibition is half-maximal.

The subject of one assay is 8226/I-R myeloma cells. In words: MTT growth inhibition, imexon-resistant 8226 myeloma cells. The format is cell-based, human. Conditions: for Cross-resistance with imexon: 8226 imexon-resistant vs parental; for IC50: Homo sapiens, imexon-resistant 8226, read-out: IC50; for IC50 / Fold Resistance of IC50 R/IC50 's: Table 5; for Fold Resistance of IC50 R/IC50 's: imexon-resistant vs sensitive 8226. The method in brief:
(§1)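 Parental 8226/S and imexon-resistant 8226/I-R myeloma cells (selected with imexon up to 3.25 mg/mL) were exposed to drug continuously for 10 days at 37 °C. Viability was measured by MTT absorbance at 570 nm relative to untreated controls. IC50 was taken as the concentration giving 50% growth inhibition, from at least 2 assays.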

The next assay deals with 8226/S myeloma cells. Nature of the assay: MTT growth inhibition, parental 8226 myeloma cells. The format is cell-based, human. As to conditions: for IC50: Homo sapiens, Table 5, Sensitive (parental) 8226, read-out: IC50; for Potency relative to imexon: myeloma cells. The method in brief: as §1
The subject of assay [1] is MCF-7 breast cancer cells (sens.). Nature of the assay: In vitro antitumor activity, MCF-7 breast (sensitive). Conditions: Homo sapiens, MCF7. The format is cell-based. From the text: (§2) 1) in vitro tumor cell viability assays using MTT and SRB dye reaction endpoints.
(§3) Sulforhodamine B (SRB) Assay for Adherent Tumor Cells
(§4) Sulforhodamine B (SRB) is a protein binding aminoxanthene dye with two sulfonic acid groups. (Lillie, R. D., H. J. Conn's Biological Stains, 9th Ed., Baltimore; Williams & Wilkins, 1977.) It quantitates whole cell protein content by the intensity of dye staining and relates this to the number of viable cells. […] The SRB assay is used for cells which normally adhere to surfaces (in this case plastic culture flasks or petri dishes) as part of their requirement for growth and division in vitro. The SRB assay is currently used by the National Cancer Institute in the anticancer drug screening program. (Skehan, et al., J Natl Cancer Inst 82:1107-1112, 1990; Rubinstein, et al., J Natl Cancer Inst 82:1113-1118, 1990.) Methodologic comparisons have shown that SRB results are linear for the number of tumor cells over a 100-fold range, and for protein content determined by a modified Lowry method or Standard Bradford (Bradford, M., Anal Biochem 72:248-254, 1976) methods. […] (Lillie, R. D., H. J. Conn's Biological Stains, 9th Ed., Baltimore; Williams & Wilkins, 1977.)
(§5) Cell cultures of 10^3 -10^7 cells growing in 96-well plastic microtiter plates are fixed with 50% trichloroacetic acid (TCA) for 30 minutes at 4° C. The cells are then stained with 0.4% (w/v) sulforhodamine B (SRB) dissolved in 1% acetic acid. Unbound dye is removed by 4 washes with 1% acetic acid, and protein-bound dye is extracted with 10 mM unbuffered Tris® base [tris(hydroxymethyl)aminomethane]. The optical density (OD) of this extracted solution is measured at […] in a microtiter plate ultraviolet absorbance detector. Cell viability is expressed as percent of control by dividing the optical densities and multiplying the result by 100.
(§6) Microculture Tetrazolium (MTT) Assay for Tumor Cells
(§7) Tumors are disaggregated into single cell suspensions using mechanical, hypoosmotic, and/or enzymatic (trypsin) methods. The cells are plated at a concentration of 3-5×10^4 per […] well into plastic 96-well plates. Growth medium containing 5-10% (vol/vol) heat-inactivated fetal bovine serum and penicillin/streptomycin (both […]) are added prior to incubation at 37° C. for 6 days. Afterwards the medium containing the drug is removed, the cells are centrifuged in fresh medium or phosphate-buffered saline (pH 7.4). A tetrazolium dye, […]-2,5-diphenyl tetrazolium (MTT), is then added. (Mossman, T., J Immunol 65:55-63, 1983.) This dye forms a colored formazan product upon activation by mitochondrial reductases in viable cells. Typically, the formazan product is solubilized in acid-propanol or DMSO. The intensity of the color is proportional to viable cell numbers and this is quantitated by spectrophotometric absorbance at 570 nm on a micro ELISA plate reader. The results are calibrated in % control absorbance from untreated tumor cells. (Alley, et al., Cancer Res 48:589-601, 1988.)
(§8) Table 3 gives the potencies of the new aziridine-1-carboxamides in a panel of human and murine tumor cells in culture. The tumor cell lines in this table are selected to represent a range of histological and growth phenotypes. Their characteristics are described below.
1.1 MCF-7 Breast Cancer: The parental (sensitive) MCF-7 breast cancer is an estrogen-dependent adenocarcinoma originally derived from a pleural effusion in a person with advanced metastatic breast cancer. (Soule, et al., J Natl Cancer Inst 51:1409-1416, 1973.)

Assay [2] relates to OVCAR-3 ovarian carcinoma cells. Nature of the assay: In vitro antitumor activity, OVCAR-3 ovarian. As to conditions: Homo sapiens, OVCAR-3; OVCAR3 ovarian; read-out: IC50. The format is cell-based, human.
Text: as §2, §3, §4, §5, §6, §7, §8
5.0 Human OVCAR-3 Ovarian Carcinoma was originally isolated by Hamilton, et al. Experimental model systems of ovarian cancer; applications to the design and evaluation of new treatment approaches. Seminar in Onocology, 11:285-298, 1984, from a patient with progressive adenocarcinoma of the ovary. This patient had relapsed after receiving a combination chemotherapy regimen containing cyclophosphamide, doxorubicin and cisplatin. […] It is also one of the standard human tumor cell lines used for screening new anticancer agents at the NCI. (Alley, et al., Cancer Res 48:589-601, 1988.)

On to `CNC(=O)N1CC1C#N` (stereo not drawn) [AMP 403, 2-Cyanoaziridine-1-(N-methyl)carboxamide], for which the “Cross-resistance with imexon” value in the assay on 8226/I-R myeloma cells is “lack of significant (>50% IC50 change) cross-resistance with imexon”. For the same molecule, the half-maximal inhibitory concentration (IC50) in the assay with 8226/I-R myeloma cells is 3.3 µg/mL (≈ 26.4 µM); with 8226/S myeloma cells it was 3.3 µg/mL (≈ 26.4 µM); in assay [1], 3.3 µg/mL (≈ 26.4 µM); in assay [2], 1.7 µg/mL. In addition, in the assay on 8226/I-R myeloma cells, the “Fold Resistance of IC50 R/IC50 's” value is 1.0.
`N#CC1CN1C(=O)Nc1ccc(C(F)(F)F)cc1` (stereo not drawn) [AMP 416, 2-Cyanoaziridine-1-[N-(4-trifluorophenyl)]carboxamide]: in the assay on 8226/I-R myeloma cells, the “Cross-resistance with imexon” value is recorded as “lack of significant (>50% IC50 change) cross-resistance with imexon; also recorded: no significant cross resistance”, the IC50 was found to be 2 µg/mL (≈ 7.84 µM) and the “Fold Resistance of IC50 R/IC50 's” value was 0.95. In the assay with 8226/S myeloma cells, the 50% inhibitory concentration (IC50) was 2.1 µg/mL (≈ 8.23 µM) and the “Potency relative to imexon” value is “roughly equal potency to imexon”. This molecule showed an IC50 in assay [1] of 0.4 µg/mL (≈ 1.57 µM). In addition, in assay [2], the half-inhibitory concentration (IC50) came out at 1.5 µg/mL.
In the case of `N#CC1CN1C(=O)Nc1ccccc1` (stereo not drawn) [AMP 404, 2-Cyanoaziridine-1-(N-phenyl)carboxamide], the “Cross-resistance with imexon” value with 8226/I-R myeloma cells is given as “lack of significant (>50% IC50 change) cross-resistance with imexon”. Moreover, the half-inhibitory concentration (IC50) was determined as 1.5 µg/mL (≈ 8.01 µM) in the assay on 8226/I-R myeloma cells, 1 µg/mL (≈ 5.34 µM) in the assay on 8226/S myeloma cells, 0.5 µg/mL (≈ 2.67 µM) in assay [1] and 1.3 µg/mL in assay [2]. Besides, in the assay with 8226/I-R myeloma cells, the “Fold Resistance of IC50 R/IC50 's” value is 1.5.
As for `N#CC1CN1C(=O)Nc1ccc(F)cc1` (stereo not drawn) [AMP 415, 2-Cyanoaziridine-1-[N-(4-fluorophenyl)]carboxamide], in the assay with 8226/I-R myeloma cells, the “Cross-resistance with imexon” value is “lack of significant (>50% IC50 change) cross-resistance with imexon; also recorded: no significant cross resistance”. Also, the half-inhibitory concentration (IC50) was determined as 1.2 µg/mL (≈ 5.85 µM) with 8226/I-R myeloma cells, 1 µg/mL (≈ 4.87 µM) with 8226/S myeloma cells, 0.4 µg/mL (≈ 1.95 µM) in assay [1] and 1.2 µg/mL in assay [2]. In the assay on 8226/I-R myeloma cells, the “Fold Resistance of IC50 R/IC50 's” value is 1.2. In addition, the “Enhanced potency: decrease in IC50 against myeloma cell growth” value in the assay on 8226/S myeloma cells (compared with imexon) is more than 40%. The “Potency relative to imexon” value in the assay with 8226/S myeloma cells is “roughly equal potency to imexon”.
